In patent US20240336617A1, “Substituted Bimane Compounds and Methods of Use Thereof” (THE TRUSTEES OF THE UNIVERSITY OF PENNSYLVANIA, priority 2023, published 2024):

Columns and labels:
[1] = target: T1, αS fibrils (Homo sapiens, UniProt P37840); test: Competition binding with ThT on αS fibrils
T1 construct: intein-His6 (C, cleaved yes); made in house; host or cells: Escherichia coli BL21

[2] = pH measurements (absorption and emission); assay type: physicochemical; details: pH 2-11
Procedure: 10 mM stock solutions of 7h, 7j, and 7k in DMSO were individually diluted into ACN/PBS buffer (50:50 v/v) having different pH ranging from pH 2-11 with 25 μM (500 μL) of final concentration. For pH screening of 7h and 7j, PBS buffer solutions were prepared, then adjusted the pH 2, 4, and 7 by adding 6 M hydrochloric acid, pH 9 and 11 by adding 5 M sodium hydroxide. For pH screening of 7k, pH 4.4 and 7.4 were prepared by citric acid/phosphate buffer. Then, the absorption and fluorescence spectra were recorded by using Thermo Scientific Genesys 150 UV-Vis spectrometer, followed by PTI QuantaMaster™ 40 fluorescence spectrometer by excitation with maximum absorption wavelength.
pH measurements. 10 mM stock solutions of 5h and 5j in DMSO were individually diluted into ACN/PBS buffer (50:50 v/v) having different pH ranging from pH 2-11 with 25 µM (500 μL) of final concentration. For pH screening of 5h and 5j, PBS buffer solutions were prepared, then adjusted the pH 2, 4, and 7 by adding 6 M hydrochloric acid, pH 9 and 11 by adding 5 M sodium hydroxide. Then, we have recorded the absorption and fluorescence spectra by using Thermo Scientific Genesys 150 UV-Vis spectrometer, followed by PTI QuantaMaster™ 40 fluorescence spectrometer by excitation with maximum absorption wavelength.

competition with ThT on αS PFFs [1]	Compound	pH effects on absorption and emission [2]
higher affinity compared than ThT	Cc1c(C)n2c(/C=C/c3ccc(N4CCOCC4)cc3)c(C)c(=O)n2c1=O [Compound 7k, (E)-2,3,6-trimethyl-5-(4-morpholinostyryl)-1H,7H-pyrazolo[1,2-a]pyrazole-1,7-dione]	–
–	Cc1c(C)n2c(/C=C/c3ccc(N)cc3)c(C)c(=O)n2c1=O [Compound 7j, (E)-3-(4-aminostyryl)-2,5,6-trimethyl-1H,7H-pyrazolo[1,2-a]pyrazole-1,7-dione]	blue-shifted absorption and emission at pH 2
